Where two headings read alike, the source gives them in different places.
[1] = high risk subjects with injection of iodinated contrast in the cardiac arteries, total 1.96 mEq/kg, 40% prior to and 60% during and after the contrast, sodium concentration 154 mEq/L, death primarily from cardiac failure

For `O=C([O-])O.[Na+]` [sodium bicarbonate solution, sodium bicarbonate], which incidence of death [1] is on record?
Its incidence of death is 3.2%.

And the incidence of death (subjects with other types of iodinated contrast injection (other non-cardiac arteries), compared between both study cohorts)?
Its incidence of death is “same incidence of death in both study cohorts”.

Which incidence of death [1] does the source give for `[Cl-].[Na+]` [sodium chloride (saline), sodium chloride] here?
Its incidence of death is 10.1%.

From US9827265B1, “Method for attenuating free radical formation resulting from a bodily insult” (MD Scientific, LLC, priority 2012, dated 2017)
